# Data from patent US11414377B2, “Modulator of metabotropic and ionotropic transmembrane receptors and use thereof” (IBD THERAPEUTICS LLC, priority 2018, dated 2022).
# Experiments:
# [1] = tested on: female balb/c mice; assay: Oxazolone-induced inflammatory bowel disease model; format: in vivo; conditions: scored at 72 hours, control 2.00 ± 0.21
# Protocol: The study of the activity of Compound I on the oxazolone-induced inflammatory bowel disease model (ulcerative Colitis and Crohn's disease model) was carried out by means of a standard procedure (Heller F., Fuss I. J., Nieuwenhuis E. E., Blumberg R. S., Strober W. Oxazolone colitis, a Th2 colitis model resembling ulcerative colitis, is mediated by IL-13-producing NK-T cells//Immunity. 2002. P. 629-638).
# The study was carried out on female balb/c mice. A 3.5 F catheter was introduced into the large intestine to a depth of 3-4 cm. Then, 150 μl of 1% oxazolone solution in 50% ethanol was slowly introduced into the colon lumen, the catheter was slowly removed and the mouse was kept in a vertical position (upside down) for 60 seconds to avoid the introduced solution flowing-out. Experimental animals were returned to the cages and the animal was kept in the warm. Compound I was administered intragastrically, three times: 1 hour, 25 hours and 49 hours after the rectal administration of oxazolone. 72 hours later after the rectal administration of oxazolone, the macroscopic assessment of intestinal wall damage is carried out with the help of score scale: 0 points—no lesions, 1 point—hyperemia, no ulcers, 2 points—hyperemia and thickening of the intestinal wall, no ulcers, 3 points—one ulcer without thickening of the intestine wall, 4 points—2 or more of the site of ulceration or inflammation, 5 points—2 or more severe sites of ulcerations and inflammation, or one site of ulceration/inflammation affecting >1 cm in length of the intestine, 6-10 points—the lesion affects >2 cm in length of the intestine, the score increases by 1 point per each 1 cm that is damaged.
# For all data, descriptive statistics is applied: the arithmetic mean (M) and the standard error of the mean (m) are counted up. The normality of distribution of the values obtained in the course of the experiment was checked with the aid of the Shapiro-Wilk test. […] Distinctions were determined at 5% at a level of confidence.
# [2] = target: kappa opioid receptor (Homo sapiens, UniProt P41145); assay: Kappa-opioid receptor radioligand displacement ([3H]U69593); format: binding
# [3] = tested on: male balb/c mice; assay: Motility of the gastrointestinal tract in vivo (activated carbon transit); conditions: for The time of ejection of activated carbon: intact 73.8 ± 3.7
# Protocol: The effect of Compound I on the motility of the GIT was studied by a standard procedure (Li Y. Y., Li Y. N., Ni J. B., Chen C. J., Lv S., Chai S. Y., Wu R. H., Yüce B., Storr M. Involvement of cannabinoid-1 and cannabinoid-2 receptors in septic ileus//Neurogastroenterol Motil. 2010. V. 22. P. 350-388). The study was carried out on male balb/c mice, the individual weight of which deviates from the mean value within the sex of no more than ±20%. The animals were given the intragastric administration of a solution of activated carbon (50 mg/ml, in 10 ml/kg) and the rate (in minutes) of the movement of the activated carbon on the intestine of animals was evaluated. Compounds I was administered once intragastrically 1 hour prior to administration of activated carbon. As the comparative preparations, hyoscin butyl bromide (Buscopan) at a dose of 3 mg/kg, trimebutine (Trimedat) at a dose of 33 mg/kg, mebeverine (Duspatalin) at a dose of 30 mg/kg were used. The obtained data were checked using the Grubb's test for the presence of the largest or smallest abnormal observation (ejection) in the sample. Values determined “to be eliminated” in this test were not used for further assay. For all data, descriptive statistics was used: a mean value (M) and standard error of the mean value (m) were counted up. The normality of distribution of the values obtained in the course of the experiment was checked with the aid of the Kolmogorov-Smirnov test. In the case of normal distribution, Student's t-test (t-test) was used to evaluate the inter-group distinctions. In the case of the distribution that is other than the normal one for the comparison of several groups, the Kruskall-Wallis test (with Dann's post hoc test) was used. Distinctions were determined at 5% at a level of confidence.
# [4] = target: T1, TRPV1 ion channel (Homo sapiens, UniProt Q8NER1); assay: Effect on activity of TRPV1 ion channel (Fluo-4 AM calcium); format: cell-based; conditions: TRPV1 expressing CHO cells; Capsaicin 30 nM; intracellular calcium; read-out: IC50, blocker of TRPV1 ion channel
# T1 construct: expressed in transfected cells; host or cells: CHO cells
# Protocol: Compound I was dissolved in DMSO to a concentration of 100 mM; then the stock solution was serially diluted with DMSO to prepare a test solution with the concentration of substance equal to 50 μM. TRPV1 expressing CHO cells were used in the experiment. At the day of the experiment, the cells were incubated with a 4 μM of a solution of fluorescent indicator Fluo-4 AM. The cells after the preincubation with Capsaicin (30 nM), the known agonist of […] ion channel, were incubated with the test compound. The activity of receptors was determined by the intracellular calcium concentration using fluorescence spectroscopy (Behrendt, H. J. et al. (2004), Br. J. Pharmacol., 141: 737-745. FINAL).
# [5] = target: recombinant human delta opioid receptor (Homo sapiens, UniProt P41143); assay: Delta-opioid receptor radioligand displacement ([3H]DADLE); format: binding
# [6] = tested on: guinea pigs of Agouti line; assay: Capsaicin cough model in guinea pigs, inhalation administration; format: in vivo
# [7] = target: T2, human NK1R (Homo sapiens, UniProt P25103); assay: Effect on activity of tachykinin receptor type 1 (intracellular calcium, fluorescence); format: cell-based; conditions: U373 cells expressing human NK1R, agonist [Sar9,Met(O2)11]-SP 1 nM, read-out: IC50, antagonist of tachykinin receptor type 1
# T2 construct: U373 cells expressing human NK1R were used in the experiment; endogenous in cells; host or cells: U373 cells
# Protocol: Compound I was dissolved in DMSO to a concentration of 100 mM; then the stock solution was serially diluted with DMSO. The maximal start concentration of substance is 100 μM. The effect was determined at 8 concentrations of test compound, each concentration was investigated twice. U373 cells expressing human NK1R were used in the experiment, said cells after the preincubation with an agonist [Sar9,Met(O2)11]-SP (1 nM) were incubated with Compound I. The activity of receptors was determined by the intracellular calcium concentration using fluorescence spectroscopy (Glia. 1992; 6(2):89-95).
# T1 sequence (Q8NER1 whole entry): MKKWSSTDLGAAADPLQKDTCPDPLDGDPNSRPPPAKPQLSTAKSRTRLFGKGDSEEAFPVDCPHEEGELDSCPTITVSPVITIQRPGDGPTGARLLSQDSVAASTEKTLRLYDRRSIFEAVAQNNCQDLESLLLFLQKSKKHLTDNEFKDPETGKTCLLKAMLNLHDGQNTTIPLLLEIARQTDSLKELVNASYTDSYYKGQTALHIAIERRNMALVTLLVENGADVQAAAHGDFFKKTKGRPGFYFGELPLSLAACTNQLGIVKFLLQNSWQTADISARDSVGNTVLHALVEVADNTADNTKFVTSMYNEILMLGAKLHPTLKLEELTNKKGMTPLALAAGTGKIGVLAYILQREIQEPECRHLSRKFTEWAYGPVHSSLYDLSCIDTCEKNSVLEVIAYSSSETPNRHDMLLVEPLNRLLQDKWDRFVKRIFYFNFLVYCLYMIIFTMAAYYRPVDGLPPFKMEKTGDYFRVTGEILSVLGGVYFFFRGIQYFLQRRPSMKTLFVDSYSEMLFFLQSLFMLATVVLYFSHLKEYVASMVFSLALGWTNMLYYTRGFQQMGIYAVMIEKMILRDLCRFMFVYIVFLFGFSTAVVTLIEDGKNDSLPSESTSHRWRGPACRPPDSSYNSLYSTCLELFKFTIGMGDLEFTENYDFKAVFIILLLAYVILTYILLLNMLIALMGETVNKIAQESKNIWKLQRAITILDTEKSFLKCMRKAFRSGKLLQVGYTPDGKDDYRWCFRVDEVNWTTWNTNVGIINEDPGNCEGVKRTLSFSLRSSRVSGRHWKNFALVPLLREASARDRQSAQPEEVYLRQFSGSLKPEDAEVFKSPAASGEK
# Chain of kappa opioid receptor (P41145 whole entry): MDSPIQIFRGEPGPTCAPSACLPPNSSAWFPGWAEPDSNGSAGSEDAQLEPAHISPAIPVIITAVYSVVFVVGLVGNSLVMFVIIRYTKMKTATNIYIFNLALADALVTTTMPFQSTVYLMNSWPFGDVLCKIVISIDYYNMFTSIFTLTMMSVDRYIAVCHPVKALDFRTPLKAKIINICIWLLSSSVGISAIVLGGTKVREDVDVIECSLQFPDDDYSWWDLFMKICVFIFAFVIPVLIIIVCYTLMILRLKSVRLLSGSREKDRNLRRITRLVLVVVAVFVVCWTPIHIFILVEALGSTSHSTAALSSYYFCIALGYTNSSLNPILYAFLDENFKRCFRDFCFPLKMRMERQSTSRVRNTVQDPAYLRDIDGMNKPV
# Chain of recombinant human delta opioid receptor (P41143 whole entry): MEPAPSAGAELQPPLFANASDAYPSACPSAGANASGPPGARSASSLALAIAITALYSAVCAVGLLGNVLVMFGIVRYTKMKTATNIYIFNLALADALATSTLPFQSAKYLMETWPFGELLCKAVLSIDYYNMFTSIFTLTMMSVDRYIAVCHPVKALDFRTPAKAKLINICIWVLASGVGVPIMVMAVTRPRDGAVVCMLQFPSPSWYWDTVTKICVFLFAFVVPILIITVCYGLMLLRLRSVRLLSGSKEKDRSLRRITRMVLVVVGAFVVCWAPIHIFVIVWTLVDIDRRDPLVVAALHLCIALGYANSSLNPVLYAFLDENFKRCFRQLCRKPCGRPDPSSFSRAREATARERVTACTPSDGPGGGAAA
# T2 sequence (P25103 whole entry): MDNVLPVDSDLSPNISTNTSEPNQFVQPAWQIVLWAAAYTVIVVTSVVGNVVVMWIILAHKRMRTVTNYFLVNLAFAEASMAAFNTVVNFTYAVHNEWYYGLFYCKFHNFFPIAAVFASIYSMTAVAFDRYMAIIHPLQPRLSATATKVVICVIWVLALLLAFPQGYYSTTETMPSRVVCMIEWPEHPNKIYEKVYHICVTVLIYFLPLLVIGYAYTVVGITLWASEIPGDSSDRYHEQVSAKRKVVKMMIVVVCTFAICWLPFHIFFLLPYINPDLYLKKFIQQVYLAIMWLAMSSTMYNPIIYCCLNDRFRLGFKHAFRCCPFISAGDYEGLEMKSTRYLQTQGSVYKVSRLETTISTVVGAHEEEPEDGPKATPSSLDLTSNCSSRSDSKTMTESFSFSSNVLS
smiles,measurement,setting,value
"O=C(Cc1ccc(O)cc1)N[C@@H](Cc1ccccc1)C(=O)NCCc1ccccc1 [Compound I, 2-phenylethylamide N-(p-hydroxyphenylacetyl)phenylalanine]",The degree of colon wall damage,"[1]; 10 mg/kg, 1, 25 and 49 hours after oxazolone",2.20 ± 0.96 points
same,The degree of colon wall damage,"[1]; 20 mg/kg intragastrically 1, 25 and 49 hours after oxazolone",0.00 ± 0.00& points
same,IC50,[2],7.1 µM
same,The time of ejection of activated carbon,[3]; 1.5 mg/kg once intragastrically 1 hour prior to activated carbon,108.7 ± 9.28 min
same,The time of ejection of activated carbon,[3]; 3 mg/kg once intragastrically 1 hour prior to activated carbon,130.4 ± 11.42 min
same,The time of ejection of activated carbon,[3]; 7.5 mg/kg once intragastrically 1 hour prior to activated carbon,123.4 ± 11.43 min
same,The time of ejection of activated carbon,[3]; 15 mg/kg once intragastrically 1 hour prior to activated carbon,147.6 ± 8.94 min
same,Increase of the time of activated carbon evacuation,"[3]; 1.5-15 mg/kg intragastrically, versus intact",1.5-2 times
same,IC50,[4],51 µM
same,IC50,[5],64 µM
same,Suppression of cough (% from the control),[6]; 0.25 mg/kg by inhalation 15 minutes before capsaicin,46.7%
same,A number of cough attacks for 15 minutes from the start of inhalation (test),"[6]; 0.25 mg/kg by inhalation 15 minutes before capsaicin 30 μM, control 15.2 ± 0.8",8.1 ± 0.2*&
same,IC50,[7],59 µM
